These results are taken from PMC8172861, “Structural and phylogenetic analyses of resistance to next-generation aminoglycosides conferred by AAC(2′) enzymes” (Scientific Reports, 2021).

The target in the test is T1, AAC(2′)-Ia (Providencia stuartii, UniProt Q52424).
T1 construct: AAC(2′)-Ia, N-terminal HIS-tag removed by thrombin
Nature of the test: crystal structure ([…] Å) and competitive inhibition assay. Format: biochemical.

T1 sequence (Q52424 whole entry): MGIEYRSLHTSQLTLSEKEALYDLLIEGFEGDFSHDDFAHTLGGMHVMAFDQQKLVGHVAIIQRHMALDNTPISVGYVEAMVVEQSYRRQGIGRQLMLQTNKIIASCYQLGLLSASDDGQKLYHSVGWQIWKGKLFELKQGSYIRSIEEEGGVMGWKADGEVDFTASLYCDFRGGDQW

By Ki is commonly meant the equilibrium dissociation constant of an inhibitor or competing ligand from its target. For the molecule `NCC[C@H](O)C(=O)N[C@@H]1C[C@H](N)[C@@H](O[C@H]2O[C@H](CN)[C@@H](O)[C@H](O)[C@H]2O)[C@H](O)[C@H]1O[C@H]1O[C@H](CO)[C@@H](O)[C@H](N)[C@H]1O` [amikacin], affinity was put at a Ki of 87 ± 10 µM.
